The values below come from US8664272B2, “Composition and methods for the treatment of myelodysplastic syndrome and acute myeloid leukemia” (Temple University—Of the Commonwealth System of Higher …, priority 2006, dated 2014).

For one data set, the system named is HL-60 cells. Briefly: Cytotoxicity of drug combinations towards HL-60 cells (WST-1 assay, median-effect analysis). To be noted: single agent, concentrations higher than 500 nM, 72 h. Type of data set: cell-based, human. A general note: Tetrazolium dyes change colour on reduction, which living cells bring about.
Another data set relates to HL-60 cell line. Conditions: cited from earlier work.
Data set [1] has as its system myelodysplastic syndrome patients. Conditions: cited from earlier work.
[2] abbreviates: subcutaneous 75 mg/m^2/day for 7 days every 4 weeks, phase 3.

Method for HL-60 cells: Human promyelocytic leukemia cell line HL-60 were obtained from American Type Culture Collection. The cells were maintained in RPMI 1640 medium supplemented with 10% FBS, penicillin, (50 U/mL), streptomycin, (50 μg/mL). Cell cultures were maintained at 37° C. in 5% CO2 humidified atmosphere. Cells were counted in a hemocytometer, using Trypan blue staining as an indicator of viability.
The test compound, or combination of compounds, was added in 50 μL volume into flat-bottom 96-well plates. Control cultures received the same amount of medium without the test compound. HL-60 cells (1×10^6 cells/mL) were suspended in growth medium and dispensed in 50 μL aliquots into the well containing the compound. The plates were incubated at 37° C. (5% CO2) for 72 h. Cytotoxicity was then determined using the WST-1 assay. In the WST-1 assay cell viability is determined by incubating the cells for a further period of 0.5 to 4 h in the presence of the tetrazolium salt 4-(3-(4-iodophenyl)-2-(4-nitrophenyl)-2H-5-tetrazolio]-1,3-benzene disulfonate. In the presence of viable cells, the compound is reduced by mitochondrial dehydrogenases to a fluorescent product. The absorbance was measured against a background control without cell, in a microtiter plate reader (Bio-Tek Instruments, Elx 800) at 450 nm with a reference wavelength of 630 nm. […]

For `COc1cc(OC)c(/C=C/S(=O)(=O)Cc2ccc(OC)c(NCC(=O)[O-])c2)c(OC)c1.[Na+]` [Compound A, (E)-2-(5-((2,4,6-trimethoxystyrylsulfonyl)methyl)-2-methoxyphenylamino)acetic acid sodium salt], the cell death entry in the data set on HL-60 cells is recorded as “virtually complete cell death”.
For the compound `Nc1ncn([C@@H]2O[C@H](CO)[C@@H](O)[C@H]2O)c(=O)n1` [Azacitidine, 5-azacytidine], in the data set with HL-60 cell line, the apoptosis entry is recorded as “induces apoptosis”. The significant side-effects result in data set [1] (clinical trials) is “nausea, anemia, thrombocytopenia, vomiting, pyrexia, leukopenia, diarrhea, fatigue, injection site erythema, constipation, neutropenia, and ecchymosis”. Besides, in data set [1] (setting [2]), the patients responded completely is listed as 5%, the patients responded partially is recorded as 10% and the response rate is reported as 15%.
